For one molecule, EC50 results are on record in PMC6751026 (Addiction biology, 2019).

The assay addresses T1, α1 glycine receptor (GlyR) (Mus musculus, UniProt Q64018, K421A/K422A).
T1 sequence (Q64018 29-457 K421A/K422A): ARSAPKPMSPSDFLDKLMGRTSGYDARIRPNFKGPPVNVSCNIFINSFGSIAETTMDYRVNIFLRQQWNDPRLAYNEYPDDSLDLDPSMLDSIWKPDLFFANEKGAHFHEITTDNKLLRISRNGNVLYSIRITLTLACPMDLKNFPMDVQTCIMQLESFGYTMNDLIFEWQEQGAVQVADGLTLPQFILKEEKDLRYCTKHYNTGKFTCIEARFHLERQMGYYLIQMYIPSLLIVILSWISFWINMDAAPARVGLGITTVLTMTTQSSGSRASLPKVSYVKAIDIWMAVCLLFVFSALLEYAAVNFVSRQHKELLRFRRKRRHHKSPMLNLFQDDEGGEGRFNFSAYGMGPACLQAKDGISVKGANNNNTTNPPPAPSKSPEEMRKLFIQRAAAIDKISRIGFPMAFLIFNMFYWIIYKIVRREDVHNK
Nature of the assay: whole-cell patch clamp, glycine concentration-response. It counts as cell-based.

`NCC(=O)O` [glycine] registered an EC50 of 54 ± 1 µM.
